From US8519163B2, “Anti-tumor activity of AECHL-1, novel triterpenoid isolated from Ailanthus excelsa in vitro and in vivo” (National Centre for Cell Science, priority 2008, dated 2013)
Values joined by “and” are separate entries in the source; they are usually repeats but may differ in a detail not shown here. Equal entries are not always repeated.

Assays:
B16F10 melanoma cells = test: In vivo allograft tumor model; parameters: species or system C57B1/6 mice; conditions: for tumor weight to body weight ratio: after 12 days treatment, vs control (p<0.01); for tumor size reduced by / tumor volume on day 24: B16F10 allograft; for tumor size reduced by: day 18; for histological examination of tumor tissue: C57 mice
Procedure: The data reported for tumor volumes are expressed as mean±SEM. Statistical differences were determined by ANOVA and post test applied was Tukey-Kramer multiple comparison Test. For Tumor to body weight ratio post test applied was Dunnett multiple comparisons test.

[1] = test system: MCF-7 human breast cancer; test: Cell viability (MTT) and proliferation ([3H]thymidine) assay; format: cell-based
Procedure: (§1) The cytotoxic effect of AECHL-1 on the HEK 293, B16F10, PC3, MCF 7 and MDA-MB-231 cells was measured by MTT assay as described in previous studies. The cells were dispensed in 96-well, flat bottom microtiter plates (Becton Dickinson Labware) at a density of 5×10^3 cells each well. […] MTT [3-(4,5-dimethylthiazol-2yl)-2,5-diphenyl tetrazolium bromide] solution (5 mg/ml in PBS) was added at the end of experiment to each well to a final concentration of 0.5 mg/ml, and the cultures were incubated for further 4 h. The resulting formazan crystals were dissolved in 100 μl dimethylsulfoxide (DMSO) and absorbance was measured in a microplate reader at 570 nm (Molecular Devices, Spectra MAX 250). The cytotoxic effect was expressed as a relative percentage of inhibition calculated as follows: Relative inhibition(%)=[(A570 control−A570 AECHL-1)A570 control]×100 Cell Proliferation Assay
(§2) Aliquots of complete medium containing 5×10^3 cells (B16F10, PC3, MDA-MB-231 and MCF-7 cells) were distributed into 96-well tissue culture plates. […] After 6 h incubation, 1 μCi [^3H]thymidine was added to each well. Cells were harvested after 24 and 48 hrs of treatment on a glass filter paper with a 96-well auto-harvester and the amount of incorporated [^3H]thymidine was determined with a β-counter (Canberra packard).

[2] = test system: MDA-MB-231 human breast carcinoma; test: as above; format: cell-based; conditions: 12, 24 and 48 h, concentration and time dependent
Procedure: as §1, §2

[3] = test system: PC3 human prostate cancer cells; test: as above; format: cell-based; conditions: 12, 24 and 48 h, concentration and time dependent
Procedure: as §1, §2

[4] = test system: B16F10 mouse melanoma cells; test: as above; format: cell-based; conditions: 12, 24 and 48 h, concentration and time dependent
Procedure: as §1, §2

p53 = test: Immunocytochemistry, p53 translocation in MCF-7 cells; format: cell-based, human; conditions: AECHL-1 2-40 μM, 24 h, confocal microscopy
Procedure: (§3) Immunocytochemistry was performed as described previously. […] Cells were incubated with primary anti-p53 antibodies (1:100; Abcam) and anti-α-tubulin antibodies (1:10000; Sigma chemical Co.) for 1 hour at room temperature. After washing with PBS, cells were incubated with CY2-conjugated secondary antibodies (1:200; Chemicon, Germany) and Alexa-conjugated secondary antibodies (1:10000; Sigma, St. Louis, Mo.) for 45 minutes and nuclear staining was done with DAPI. Images were captured under confocal microscope.
(§4) The tumor suppressor p53 plays a critical role in preventing human cancer formation. It translocates into the nucleus and works as a transcription factor by upregulating cell cycle regulatory proteins and induces cell cycle arrest and/or programmed cell death (apoptosis) (11). […] After 24 h of incubation, the p53 translocation in the nucleus (green fluorescence) and microtubule network (red fluorescence) was visualized by confocal microscopy.

[5] = test system: cellular microtubule network; test: Immunocytochemistry, microtubule network in MCF-7 cells; format: cell-based, human; conditions: paclitaxel 1-20 μM, AECHL-1 2-40 μM, 24 h, confocal microscopy
Procedure: as §3, §4

MCF-7 cells = test: Cell cycle analysis by flow cytometry; format: cell-based, human; conditions: for Phase of cell cycle (% of cells) G1 / Phase of cell cycle (% of cells) G2/M / Phase of cell cycle (% of cells) S / Phase of cell cycle (% of cells) Sub G0: 24 h
Procedure: (§5) The cell cycle analysis of MCF-7, B16F10 MDA-MB-231 and PC3 cells was done by flow cytometry. […] Cells were harvested with trypsin (0.05%), 0.02% EDTA, 0.05% glucose and a single-cell suspension was prepared. Cells were washed and were pelleted by centrifugation (1000×g for 2 min) and fixed in 70% ethanol while vortexing and stored at 4° C. for 1 hour. Fixed cells were pelleted by centrifugation, to remove ethanol and washed with PBS. Cells were re-suspended in PBS containing 50 μg/ml propidium iodide, 0.1 g/L RNase and 1% BSA, incubated for 30 min at 37° C. in the dark, and analyzed with flow cytometry (FACS Vantage-BD Sciences, USA) equipped with an argon laser at 488 nm. The data was analyzed using Cell Quest software for determining the percent population in different phases of cell cycle.

MDA-MB-231 cells = test: Cell cycle analysis by flow cytometry; format: cell-based, human; conditions: for Phase of cell cycle (% of cells) G1 / Phase of cell cycle (% of cells) G2/M / Phase of cell cycle (% of cells) S / Phase of cell cycle (% of cells) Sub G0: 24 h
Procedure: as §5

PC3 cells = test: Cell cycle analysis by flow cytometry; format: cell-based, human; conditions: for Phase of cell cycle (% of cells) G1 / Phase of cell cycle (% of cells) G2/M / Phase of cell cycle (% of cells) S / Phase of cell cycle (% of cells) Sub G0: 24 h
Procedure: as §5

## C=C1C(OCC)C2(O)OCC34C(=C(C)c5c(C)cc(O)c(OCC)c5C23)OC(=O)C(OC(=O)C(C)(O)CC)C14 (stereo not drawn) [AECHL-1]
B16F10 melanoma cells; 50 μg
  tumor weight to body weight ratio: significant reduction
  tumor volume on day 24: increased
  histological examination of tumor tissue: Tumor cell density was found to be decreased with occurrence of picnotic/necrotic cells in the center of the tumor
B16F10 melanoma cells; 100 μg
  tumor weight to body weight ratio: significant reduction
  tumor volume on day 24: increased
  histological examination of tumor tissue: increase in necrotic nuclei through out the tumor area, with disappearance of neovasulization and hemorrhagic areas
B16F10 melanoma cells; 50 μg intra-tumor for 12 days
  tumor size reduced by: 44.303±5.20%
B16F10 melanoma cells; 100 μg intra-tumor for 12 days
  tumor size reduced by: 51.014±1.27%
[1]; MCF-7, 12, 24 and 48 h, concentration and time dependent
  percent viability and proliferation of the tumor cells: significantly inhibited
[1]; MCF-7 cells, 10 μM, 48 h
  inhibitory effect compared with reference drugs: stronger than that of Paclitaxel, or Cisplatin
[2]
  percent viability and proliferation of the tumor cells: significantly inhibited
[3]
  percent viability and proliferation of the tumor cells: significantly inhibited
[4]
  percent viability and proliferation of the tumor cells: significantly inhibited
p53
  p53 translocation in the nucleus: translocation of the p53 into the nucleus
[5]
  effect on microtubule network: thickening and increased density of microtubules
MCF-7 cells; MCF-7, 4 μM
  Phase of cell cycle (% of cells) G1: 35.04%
  Phase of cell cycle (% of cells) G2/M: 36.65%
  Phase of cell cycle (% of cells) S: 27.20%
  Phase of cell cycle (% of cells) Sub G0: 1.61%
MCF-7 cells; MCF-7, 10 μM
  Phase of cell cycle (% of cells) G1: 27.85%
  Phase of cell cycle (% of cells) G2/M: 36.78%
  Phase of cell cycle (% of cells) S: 34.19%
  Phase of cell cycle (% of cells) Sub G0: 1.99%
MCF-7 cells; MCF-7, 20 μM
  Phase of cell cycle (% of cells) G1: 29.68%
  Phase of cell cycle (% of cells) G2/M: 31.98%
  Phase of cell cycle (% of cells) S: 37.44%
  Phase of cell cycle (% of cells) Sub G0: 1.81%
MCF-7 cells; MCF-7, 40 μM
  Phase of cell cycle (% of cells) G1: 36.26%
  Phase of cell cycle (% of cells) G2/M: 29.42%
  Phase of cell cycle (% of cells) S: 32.50%
  Phase of cell cycle (% of cells) Sub G0: 2.55%
MCF-7 cells; MCF-7, 100 μM
  % of cells in G0/G1 phase: 36.26%
MCF-7 cells; MCF-7, 100 μM, control 45.13
  cell count in S-G2/M phase: 69.4%
MCF-7 cells; MCF-7 cells
  phase of cell growth arrest: S-G2/M phase
MDA-MB-231 cells; MDA-231, 10 μM
  Phase of cell cycle (% of cells) G1: 43.03%
  Phase of cell cycle (% of cells) G2/M: 32.21%
  Phase of cell cycle (% of cells) S: 24.06%
  Phase of cell cycle (% of cells) Sub G0: 1.03%
MDA-MB-231 cells; MDA-231, 20 μM
  Phase of cell cycle (% of cells) G1: 33.18%
  Phase of cell cycle (% of cells) G2/M: 38.01%
  Phase of cell cycle (% of cells) S: 28.63%
  Phase of cell cycle (% of cells) Sub G0: 0.95%
MDA-MB-231 cells; MDA-231, 40 μM
  Phase of cell cycle (% of cells) G1: 26.66%
  Phase of cell cycle (% of cells) G2/M: 45.14% and 45.15%
  Phase of cell cycle (% of cells) S: 28.12%
  Phase of cell cycle (% of cells) Sub G0: 0.54%
MDA-MB-231 cells; MDA-231, 100 μM
  Phase of cell cycle (% of cells) G1: 22.82%
  Phase of cell cycle (% of cells) G2/M: 46.17%
  Phase of cell cycle (% of cells) S: 30.99%
  Phase of cell cycle (% of cells) Sub G0: 0.58%
MDA-MB-231 cells; MDA-MB 231 cells
  phase of cell growth arrest: S-G2/M phase
PC3 cells; PC3, 10 μM
  Phase of cell cycle (% of cells) G1: 50.74%
  Phase of cell cycle (% of cells) G2/M: 30.94%
  Phase of cell cycle (% of cells) S: 16.21%
  Phase of cell cycle (% of cells) Sub G0: 1.66%
PC3 cells; PC3, 20 μM
  Phase of cell cycle (% of cells) G1: 48.96%
  Phase of cell cycle (% of cells) G2/M: 34.99%
  Phase of cell cycle (% of cells) S: 13.99%
  Phase of cell cycle (% of cells) Sub G0: 1.79%
PC3 cells; PC3, 40 μM
  Phase of cell cycle (% of cells) G1: 44.26%
  Phase of cell cycle (% of cells) G2/M: 33.82%
  Phase of cell cycle (% of cells) S: 17.71%
  Phase of cell cycle (% of cells) Sub G0: 4.14%
PC3 cells; PC3, 100 μM
  Phase of cell cycle (% of cells) G1: 42.92%
  Phase of cell cycle (% of cells) G2/M: 35.37%
  Phase of cell cycle (% of cells) S: 18.25%
  Phase of cell cycle (% of cells) Sub G0: 3.36%
PC3 cells; PC3, 100 μM, vehicle 45.41%
  cell count in S-G2/M phase: 53.62%
PC3 cells; PC3 cells
  phase of cell growth arrest: S-G2/M phase
